This is an account of results in patent US20080051419A1, “AMINE DERIVATIVES USEFUL AS ANTICANCER AGENTS” (PFIZER INC., priority 2006, published 2008).

This experiment addresses T1, Akt1 (Homo sapiens, UniProt P31749, S473D).
T1 construct: The version of Akt used in these studies lacks the pleckstrin homology (PH) domain
Briefly: Akt1 kinase assay, fluorescence polarization (IMAP). The class given is biochemical. How it is done: The Akt1 kinase assay is based on the measurement of fluorescence polarization using IMAP technology (Molecular Devices Corporation #R8062). Two microliters of inhibitor compounds diluted to a concentration of 10 millimolar are added to column 2 of a polypropylene 96-well plate containing 98 microliters of 100% DMSO; the wells in columns 3-12 contain 60 microliters of 100% DMSO. The various test compounds are serially diluted 1:3 across the plate by pipetting 30 microliters of compounds into wells containing 60 microliters of 100% DMSO. Column 12 receives DMSO only and is used as a negative control for inhibition. The components of the wells are mixed and 15 microliters of each well are transferred to another 96-well plate already containing 60 microliters of reaction buffer (RB: 10 mM Tris-HCl, pH 7.5, 10 mM MgCl2, 0.1 mM EGTA, 0.01% Triton-X100 (Sigma #X-100), freshly added 1 mM DTT). After mixing, the […] reactions are assembled. First, five microliters of the above compound/reaction buffer mixture is transferred to the bottom of a 96-well black polystyrene reaction plate (Costar, #3694). Next, ten microliters of a solution containing 4 micromolar ATP and 40 nanomolar fluorescent-labeled Crosstide (Tamara-labeled […] peptide) are added. Then, 5 microliters (1.5 nanograms) of Akt protein in RB are added. The version of Akt used in these studies lacks the pleckstrin homology (PH) domain, and contains an aspartic acid residue in place of a serine residue in position 473 within the Akt1 hydrophobic motif. The Akt1 protein contains a polyhistidine tag at the amino terminus and is prephosphorylated on threonine at position 308 in order to activate latent kinase activity. Once the reaction components and inhibitors are assembled, the plates are gently tapped, covered with foil, and then incubated at ambient temperature for 30 minutes. IMAP beads (Molecular Devices) are then added (60 microliters of a 1:400 dilution of beads in RB). Plates are read on a Victor Plate Reader with the following settings: CW lamp filter: 544 nm, emission filter: 615 nm. Control values from wells lacking Akt protein are subtracted from the gross readings, and IC50 values are calculated using XLDA.
(Fluorescence polarisation rises when a labelled molecule tumbles more slowly, as on binding a larger partner.)

Setting [1] is: Table 1, concentration bins, read-out: Concentration Range at which exemplary compounds of formula I inhibit Akt kinase activity.
The mark [2] stands for this setting: average Akt kinase activity (IC50), read-out: Avg Akt kinase, μM (50% inhibition).
[3] abbreviates: Table 3, read-out: Avg Akt kinase, μM (50% inhibition).

Read-outs that look alike come from different tables or passages of the source.

T1 sequence (P31749 118-480 S473D limits assumed, species assumed): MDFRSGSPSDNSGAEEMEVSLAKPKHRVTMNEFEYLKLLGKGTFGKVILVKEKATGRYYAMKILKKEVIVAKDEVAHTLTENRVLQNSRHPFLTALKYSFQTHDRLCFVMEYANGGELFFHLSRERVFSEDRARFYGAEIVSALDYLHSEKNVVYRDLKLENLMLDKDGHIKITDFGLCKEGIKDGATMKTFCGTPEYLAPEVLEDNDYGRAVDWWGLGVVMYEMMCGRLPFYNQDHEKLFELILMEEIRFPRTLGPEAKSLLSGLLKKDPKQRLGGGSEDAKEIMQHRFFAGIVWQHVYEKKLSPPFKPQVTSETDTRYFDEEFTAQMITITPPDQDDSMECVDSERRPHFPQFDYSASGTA

In the case of `CCc1c[nH]c2ncnc(N3CC[C@](N)(CNC(=O)c4cccc(C)c4Cl)C3)c12` [Example 118], the IC50 was 0.0101 to 0.1 µM under setting [1] and 0.0124 µM under setting [2].
Take `Cc1c[nH]c2ncnc(N3CCC(N)(CN(CCN(C)C)Cc4ccccc4)C3)c12` (stereo not drawn) [Example 47, N-{[3-amino-1-(5-methyl-7H-pyrrolo[2,3-d]pyrimidin-4-yl)pyrrolidin-3-yl]methyl}-N-benzyl-N′,N′-dimethylethane-1,2-diamine]: the IC50 under setting [1] fell in the range of 0.101 to 10 µM and the IC50 under setting [3] came out at 0.172 µM.
In the case of `N[C@]1(CNC(=O)c2c(F)cccc2F)CCN(c2ncnc3[nH]cc(Cl)c23)C1` [Example 130], the IC50 under setting [1] lay in the range of 0.00251 to 0.01 µM and the IC50 under setting [2] amounted to 0.00906 µM.
The matching figures for `Cc1cccc(F)c1C(=O)NC[C@@]1(N)CCN(c2ncnc3[nH]cc(C)c23)C1` [Example 121]: 0.0101 to 0.1 µM and 0.0418 µM.
The matching figures for `N[C@]1(CNC(=O)c2ccc(F)cc2Cl)CCN(c2ncnc3[nH]cc(Cl)c23)C1` [Example 107, N-{[(3S)-3-amino-1-(5-chloro-7H-pyrrolo[2,3-d]pyrimidin-4-yl)pyrrolidin-3-yl]methyl}-2-chloro-4-fluorobenzamide]: 0.00025 to 0.0025 µM and 0.0011 µM.
For `Cc1c[nH]c2ncnc(N3CCC(N)(CN4CCCc5ccccc54)C3)c12` (stereo not drawn) [Example 49, 3-(3,4-dihydroquinolin-1(2H)-ylmethyl)-1-(5-methyl-7H-pyrrolo[2,3-d]pyrimidin-4-yl)pyrrolidin-3-amine], the IC50 under setting [1] fell in the range of 0.101 to 10 µM and the IC50 under setting [3] turned out to be 0.131 µM.
On to `Cc1c[nH]c2ncnc(N3CCC(N)(CNc4cccc(F)c4F)C3)c12` (stereo not drawn) [Example 32, 3-{[(2,3-difluorophenyl)amino]methyl}-1-(5-methyl-7H-pyrrolo[2,3-d]pyrimidin-4-yl)pyrrolidin-3-amine], for which the IC50 runs as follows: under setting [1], 0.0101 to 0.1 µM; under setting [3], 0.0105 µM.
For the molecule `Cc1cc(C(=O)NC[C@]2(N)CCN(c3ncnc4[nH]cc(Cl)c34)C2)no1` [Example 79], the IC50 is 0.00251 to 0.01 µM under setting [1] and 0.00377 µM under setting [2].
On to `CCN(CC1(N)CCN(c2ncnc3[nH]cc(C)c23)C1)c1ccccc1` (stereo not drawn) [Example 50, 3-{[ethyl(phenyl)amino]methyl}-1-(5-methyl-7H-pyrrolo[2,3-d]pyrimidin-4-yl)pyrrolidin-3-amine], for which the IC50 is, setting by setting: under setting [1], 0.101 to 10 µM; under setting [3], 0.116 µM.
Regarding `Cc1c[nH]c2ncnc(N3CC[C@](N)(CNc4ccc(Cl)cc4)C3)c12` [Example 18, (3S)-3-{[(4-chlorophenyl)amino]methyl}-1-(5-methyl-7H-pyrrolo[2,3-d]pyrimidin-4-yl)pyrrolidin-3-amine], the IC50 reads like this: under setting [1], 0.00025 to 0.0025 µM; under setting [3], 0.002 µM.
Take `CCc1c[nH]c2ncnc(N3CC[C@](N)(CNC(=O)c4cccc(Cl)c4)C3)c12` [Example 133]: the IC50 under setting [1] fell in the range of 0.00251 to 0.01 µM and the IC50 under setting [2] was 0.00447 µM.
`Cc1c[nH]c2ncnc(N3CCC(N)(CNc4cccc5c4CCCC5)C3)c12` (stereo not drawn) [Example 35, 1-(5-methyl-7H-pyrrolo[2,3-d]pyrimidin-4-yl)-3-[(5,6,7,8-tetrahydronaphthalen-1-ylamino)methyl]pyrrolidin-3-amine]: the IC50 under setting [1] lay in the range of 0.00251 to 0.01 µM and the IC50 under setting [3] came out at 0.00797 µM.
The matching figures for `Cc1c[nH]c2ncnc(N3CCC(N)(CNc4ccccc4N4CCOCC4)C3)c12` (stereo not drawn) [Example 29, 1-(5-methyl-7H-pyrrolo[2,3-d]pyrimidin-4-yl)-3-{[(2-morpholin-4-ylphenyl)amino]methyl}pyrrolidin-3-amine]: 0.0101 to 0.1 µM and 0.0101 µM.
The matching figures for `Cc1c[nH]c2ncnc(N3CCC(N)(CNc4cc(C(F)(F)F)ccc4Oc4ccc(Cl)cc4)C3)c12` (stereo not drawn) [Example 33, 3-({[2-(4-chlorophenoxy)-5-(trifluoromethyl)phenyl]amino}-methyl)-1-(5-methyl-7H-pyrrolo[2,3-d]pyrimidin-4-yl)pyrrolidin-3-amine]: 0.00251 to 0.01 µM and 0.00859 µM.
As to `N[C@]1(CNC(=O)c2ccc(Cl)cc2)CCN(c2ncnc3[nH]cc(Cl)c23)C1` [Example 70, N—(((S)-3-amino-1-(5-chloro-7H-pyrrolo[2,3-d]pyrimidinechlorobenzamide (70)-4-yl)pyrrolidin-3-yl)methyl)-4], the IC50 is 0.00251 to 0.01 µM under setting [1] and 0.00544 µM under setting [2].
Take `N#Cc1n[nH]c2ncnc(N3CCC(N)(CNc4cccc(Cl)c4)C3)c12` (stereo not drawn) [Example 8, 4-{3-Amino-3-[(3-chloro-phenylamino)-methyl]-pyrrolidin-1-yl}-1H-pyrazolo[3,4-d]pyrimidine-3-carbonitrile]: the IC50 runs as follows: under setting [1], 0.101 to 10 µM; under setting [3], 0.249 µM.
For the molecule `Cc1cccc(C(=O)NC[C@@]2(N)CCN(c3ncnc4[nH]cc(C)c34)C2)c1Cl` [Example 117], the IC50 is, setting by setting: under setting [1], 0.0101 to 0.1 µM; under setting [2], 0.0135 µM.
For the molecule `Cc1cccc(C(=O)NC[C@@]2(N)CCN(c3ncnc4[nH]cc(Cl)c34)C2)c1Cl` [Example 119], the IC50 under setting [1] lay within 0.00251 to 0.01 µM and the IC50 under setting [2] was found to be 0.00785 µM.
Regarding `Cc1c[nH]c2ncnc(N3CC[C@](N)(CNC(=O)c4ccc(F)cc4Cl)C3)c12` [Example 100, N-{[(3S)-3-amino-1-(5-methyl-7H-pyrrolo[2,3-d]pyrimidin-4-yl)pyrrolidin-3-yl]methyl}-2-chloro-4-fluorobenzamide], the IC50 is 0.00251 to 0.01 µM under setting [1] and 0.00972 µM under setting [2].
Consider `Cc1c[nH]c2ncnc(N3CC[C@](N)(CNc4cccc(F)c4)C3)c12` [Example 37, (3S)-3-{[(3-fluorophenyl)amino]methyl}-1-(5-methyl-7H-pyrrolo[2,3-d]pyrimidin-4-yl)pyrrolidin-3-amine], for which the IC50 under setting [1] was in the range of 0.00251 to 0.01 µM and the IC50 under setting [3] was 0.00329 µM.
`N[C@]1(CNC(=O)c2ccccc2)CCN(c2ncnc3[nH]cc(Cl)c23)C1` [Example 108, N-{[(3S)-3-amino-1-(5-chloro-7H-pyrrolo[2,3-d]pyrimidin-4-yl)pyrrolidin-3-yl]methyl}benzamide]: the IC50 was 0.00251 to 0.01 µM under setting [1] and 0.00251 µM under setting [2].
Turning to `Cc1c[nH]c2ncnc(N3CCC(N)(CNc4ccccc4Oc4ccccc4)C3)c12` (stereo not drawn) [Example 20, 1-(5-methyl-7H-pyrrolo[2,3-d]pyrimidin-4-yl)-3-{[(2-phenoxyphenyl)amino]methyl}-pyrrolidin-3-amine], the IC50 is 0.0101 to 0.1 µM under setting [1] and 0.0155 µM under setting [3].
On to `Cc1c[nH]c2ncnc(N3CCC(N)(CSc4cccc(C(F)(F)F)c4)C3)c12` (stereo not drawn) [Example 66, 1-(5-methyl-7H-pyrrolo[2,3-d]pyrimidin-4-yl)-3-((3-(trifluoromethyl)phenylthio)methyl) -pyrrolidin-3-amine], for which the IC50 was 0.101 to 10 µM under setting [1] and 0.701 µM under setting [2].
In the same order, the values of `Cc1c[nH]c2ncnc(N3CC[C@](N)(CNC(=O)c4ccc(F)cc4F)C3)c12` [Example 97, N-{[(3S)-3-amino-1-(5-methyl-7H-pyrrolo[2,3-d]pyrimidin-4-yl)pyrrolidin-3-yl]methyl}-2,4-difluorobenzamide] are 0.00025 to 0.0025 µM and 0.000979 µM.
The matching figures for `CCc1c[nH]c2ncnc(N3CC[C@](N)(CNC(=O)c4ccc(F)cc4F)C3)c12` [Example 73, N-{[(3S)-3-amino-1-(5-ethyl-7H-pyrrolo[2,3-d]pyrimidin-4-yl)pyrrolidin-3-yl]methyl}-2,4-difluorobenzamide]: 0.00025 to 0.0025 µM and 0.000269 µM.
Consider `Cc1c[nH]c2ncnc(N3CCC(N)(CNc4ccc(F)cc4F)C3)c12` (stereo not drawn) [Example 34, 3-{[(2,4-difluorophenyl)amino]methyl}-1-(5-methyl-7H-pyrrolo[2,3-d]pyrimidin-4-yl)pyrrolidin-3-amine], for which the IC50 is 0.00251 to 0.01 µM under setting [1] and 0.00771 µM under setting [3].
Regarding `Cc1c[nH]c2ncnc(N3CC[C@@](N)(COc4cccc(C(F)(F)F)c4)C3)c12` [Example 62], the IC50 (Table 4, read-out: Avg Akt kinase, μM (50% inhibition)) came to 2.69 µM.
For `N[C@]1(CNC(=O)c2cc(F)ccc2F)CCN(c2ncnc3[nH]cc(Cl)c23)C1` [Example 106, N-{[(3S)-3-amino-1-(5-chloro-7H-pyrrolo[2,3-d]pyrimidin-4-yl)pyrrolidin-3-yl]methyl}-2,5-difluorobenzamide], the IC50 is 0.00025 to 0.0025 µM under setting [1] and 0.0025 µM under setting [2].
For the molecule `Cc1c[nH]c2ncnc(N3CCC(N)(CNc4ccccc4N4CCCCC4)C3)c12` (stereo not drawn) [Example 24, 1-(5-methyl-7H-pyrrolo[2,3-d]pyrimidin-4-yl)-3-{[(2-piperidin-1-ylphenyl)amino]methyl}pyrrolidin-3-amine], the IC50 reads like this: under setting [1], 0.0101 to 0.1 µM; under setting [3], 0.0108 µM.
